Consider 31 compounds from patent US11034692B1 (Genentech, Inc., priority 2017, dated 2021).

The assay concerns the target HPK1. In words: HPK1 Lantha Binding Assay ("Lanth"). The conditions noted are these: Table B1-1, read-out: HPK1 Ki (μM) (Lanth). The method, boiled down: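 Compounds in an 11-point 5-fold series were preincubated 1 h at 23 C with 2 nM kinase plus 2 nM Eu-anti-GST antibody. Then 15 nM Tracer222 was added for another hour, and time-resolved FRET was read at 665/615 nm. Ki values come from a Morrison tight-binding model that uses the tracer Kd.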

As usually defined, the Ki is a measure of affinity in units of concentration, obtained from inhibition or displacement. Turning to `N#C[C@@H]1C[C@H]1C(=O)Nc1cc2cc(-c3cnccc3-c3cn[nH]c3)nc(N)c2cn1` [Compound 235, (1R,2R)—N-(6-(4-(1H-pyrazol-4-yl)pyridin-3-yl)-8-amino-2,7-naphthyridin-3-yl)-2-cyanocyclopropanecarboxamide], the inhibitory constant (Ki) was determined as 0.706 nM.

Take `N#C[C@H]1C[C@@H]1C(=O)Nc1cc2cc(-c3cnccc3-c3cn[nH]c3)nc(N)c2cn1` [Compound 236, (1S,2S)—N-(6-(4-(1H-pyrazol-4-yl)pyridin-3-yl)-8-amino-2,7-naphthyridin-3-yl)-2-cyanocyclopropanecarboxamide]: the Ki came out at 23.3 nM.

As to `Cc1cc(-c2cnn(C)c2)ncc1-c1cc2cc(NC(=O)[C@@H]3C[C@H]3CC#N)ncc2c(N)n1` [Compound 237, (1R,2S)—N-(8-amino-6-(4-methyl-6-(1-methyl-1H-pyrazol-4-yl)pyridin-3-yl)-2,7-naphthyridin-3-yl)-2-(cyanomethyl)cyclopropanecarboxamide], the Ki was determined as 10.2 nM.

`Cc1cc(-c2cnn(C)c2)ncc1-c1cc2cc(NC(=O)[C@H]3C[C@@H]3CC#N)ncc2c(N)n1` [Compound 238, (1S,2R)—N-(8-amino-6-(4-methyl-6-(i-methyl-H-pyrazol-4-yl)pyridin-3-yl)-2,7-naphthyridin-3-yl)-2-(cyanomethyl)cyclopropanecarboxamide]: the inhibition constant Ki stood at 1.94 nM.

Regarding `COC(C)(C)[C@@H]1C[C@H]1C(=O)Nc1cc2cc(-c3cnccc3C)nc(N)c2cn1` [Compound 239, (1R,2R)—N-[8-amino-6-(4-methylpyridin-3-yl)-2,7-naphthyridin-3-yl]-2-(2-methoxypropan-2-yl)cyclopropane-1-carboxamide], the Ki came out at 5.28 nM.

Consider `COC(C)(C)[C@H]1C[C@@H]1C(=O)Nc1cc2cc(-c3cnccc3C)nc(N)c2cn1` [Compound 240, (1S,2S)—N-[8-amino-6-(4-methylpyridin-3-yl)-2,7-naphthyridin-3-yl]-2-(2-methoxypropan-2-yl)cyclopropane-1-carboxamide], for which the inhibitory constant (Ki) stood at 47 nM.

Regarding `Cc1ccncc1-c1cc2cc(NC(=O)[C@@H]3C[C@H]3C(C)(C)O)ncc2c(N)n1` [Compound 241, (1R,2R)—N-[8-amino-6-(4-methylpyridin-3-yl)-2,7-naphthyridin-3-yl]-2-(2-hydroxypropan-2-yl)cyclopropane-1-carboxamide], the inhibition constant Ki was 2.19 nM.

As to `Cc1ccncc1-c1cc2cc(NC(=O)[C@H]3C[C@@H]3C(C)(C)O)ncc2c(N)n1` [Compound 242, (1S,2S)—N-[8-amino-6-(4-methylpyridin-3-yl)-2,7-naphthyridin-3-yl]-2-(2-hydroxypropan-2-yl)cyclopropane-1-carboxamide], the inhibition constant (Ki) was found to be 31.2 nM.

On to `N#C[C@@H]1C[C@H]1C(=O)Nc1cc2cc(-c3cnccc3-c3cc[nH]n3)nc(N)c2cn1` [Compound 243, (1R,2R)—N-(6-(4-(1H-pyrazol-3-yl)pyridin-3-yl)-8-amino-2,7-naphthyridin-3-yl)-2-cyanocyclopropanecarboxamide], for which the Ki amounted to 1.37 nM.

As to `N#C[C@H]1C[C@@H]1C(=O)Nc1cc2cc(-c3cnccc3-c3cc[nH]n3)nc(N)c2cn1` [Compound 244, (1S,2S)—N-(6-(4-(1H-pyrazol-3-yl)pyridin-3-yl)-8-amino-2,7-naphthyridin-3-yl)-2-cyanocyclopropanecarboxamide], the inhibition constant Ki was 3.56 nM.

On to `Nc1nc(-c2cnccc2CCO)cc2cc(NC(=O)[C@H]3C[C@@H]3c3cnsc3)ncc12` [Compound 245, (1S,2S)—N-(8-amino-6-(4-(2-hydroxyethyl)pyridin-3-yl)-2,7-naphthyridin-3-yl)-2-(isothiazol-4-yl)cyclopropanecarboxamide], for which the inhibition constant Ki was found to be 5.42 nM.

`Nc1nc(-c2cnccc2CCO)cc2cc(NC(=O)[C@@H]3C[C@H]3c3cnsc3)ncc12` [Compound 246, (1R,2R)—N-(8-amino-6-(4-(2-hydroxyethyl)pyridin-3-yl)-2,7-naphthyridin-3-yl)-2-(isothiazol-4-yl)cyclopropanecarboxamide]: the Ki is 0.0455 nM.

Take `Cc1c(N)cncc1-c1cc2cc(NC(=O)[C@H]3C[C@@H]3CC#N)ncc2c(N)n1` [Compound 247, (1S,2R)—N-[8-amino-6-(5-amino-4-methylpyridin-3-yl)-2,7-naphthyridin-3-yl]-2-(cyanomethyl)cyclopropane-1-carboxamide]: the Ki was 0.0219 nM.

Take `Cc1c(N)cncc1-c1cc2cc(NC(=O)[C@@H]3C[C@H]3CC#N)ncc2c(N)n1` [Compound 248, (1R,2S)—N-[8-amino-6-(5-amino-4-methylpyridin-3-yl)-2,7-naphthyridin-3-yl]-2-(cyanomethyl)cyclopropane-1-carboxamide]: the Ki stood at 1.03 nM.

With `Cc1ccncc1-c1cc2cc(Nc3cnn([C@@H]4CCN(C)C4=O)c3)ncc2c(N)n1` [Compound 249, (3R)-3-(4-[[8-amino-6-(4-methylpyridin-3-yl)-2,7-naphthyridin-3-yl]amino]-1H-pyrazol-1-yl)-1-methylpyrrolidin-2-one], the Ki worked out at 0.433 nM.

As to `Cc1ccncc1-c1cc2cc(Nc3cnn([C@H]4CCN(C)C4=O)c3)ncc2c(N)n1` [Compound 250, (3S)-3-(4-[[8-amino-6-(4-methylpyridin-3-yl)-2,7-naphthyridin-3-yl]amino]-1H-pyrazol-1-yl)-1-methylpyrrolidin-2-one], the inhibition constant (Ki) was 0.184 nM.

In the case of `Cc1ccncc1-c1cc2cc(Nc3cnn([C@@H]4CCCN(C)C4=O)c3)ncc2c(N)n1` [Compound 251, (3R)-3-(4-[[8-amino-6-(4-methylpyridin-3-yl)-2,7-naphthyridin-3-yl]amino]-1H-pyrazol-1-yl)-1-methylpiperidin-2-one], the inhibition constant Ki was 0.512 nM.

Consider `Cc1ccncc1-c1cc2cc(Nc3cnn([C@H]4CCCN(C)C4=O)c3)ncc2c(N)n1` [Compound 252, (3S)-3-(4-[[8-amino-6-(4-methylpyridin-3-yl)-2,7-naphthyridin-3-yl]amino]-1H-pyrazol-1-yl)-1-methylpiperidin-2-one], for which the inhibitory constant (Ki) came out at 0.569 nM.

Regarding `Nc1nc(-c2cnccc2CCO)cc2cc(NC(=O)[C@@H]3C[C@H]3c3cccnc3)ncc12` [Compound 253, (1R,2R)—N-[8-amino-6-[4-(2-hydroxyethyl)pyridin-3-yl]-2,7-naphthyridin-3-yl]-2-(pyridin-3-yl)cyclopropane-1-carboxamide], the inhibition constant Ki stood at 0.0892 nM.

For `Nc1nc(-c2cnccc2CCO)cc2cc(NC(=O)[C@H]3C[C@@H]3c3cccnc3)ncc12` [Compound 254, (1S,2S)—N-[8-amino-6-[4-(2-hydroxyethyl)pyridin-3-yl]-2,7-naphthyridin-3-yl]-2-(pyridin-3-yl)cyclopropane-1-carboxamide], the Ki came out at 4.55 nM.

`Cc1ccncc1-c1cc2cc(NC(=O)[C@H]3[C@@H]4CN(C5COC5)C[C@@H]43)ncc2c(N)n1` [Compound 255, (exo)-N-[8-amino-6-(4-methylpyridin-3-yl)-2,7-naphthyridin-3-yl]-3-(oxetan-3-yl)-3-azabicyclo[3.1.0]hexane-6-carboxamide]: the inhibition constant Ki came to 33.9 nM.

On to `Cc1ccncc1-c1cc2cc(Nc3cnn(CC(F)F)c3)ncc2c(N)n1` [Compound 257, 6-N-[1-(2,2-difluoroethyl)-1H-pyrazol-4-yl]-3-(4-methylpyridin-3-yl)-2,7-naphthyridine-1,6-diamine], for which the inhibitory constant (Ki) was found to be 1.01 nM.

`Cc1ccncc1-c1nc(N)c2cnc(NC(=O)C3CC3)cc2c1-c1cn[nH]c1` [Compound 258, N-(8-amino-6-(4-methylpyridin-3-yl)-5-(1H-pyrazol-4-yl)-2,7-naphthyridin-3-yl)cyclopropanecarboxamide]: the inhibition constant Ki stood at 0.695 nM.

Regarding `Cc1ccncc1-c1cc2cc(Nc3cc(C4CC4)n(CCO)n3)ncc2c(N)n1` [Compound 259, 2-(3-[[8-amino-6-(4-methylpyridin-3-yl)-2,7-naphthyridin-3-yl]amino]-5-cyclopropyl-1H-pyrazol-1-yl)ethan-1-ol], the Ki stood at 146 nM.

Turning to `Cc1ccncc1-c1cc2cc(Nc3cnn(CC(C)(C)O)c3)ncc2c(N)n1` [Compound 260, 1-(4-[[8-amino-6-(4-methylpyridin-3-yl)-2,7-naphthyridin-3-yl]amino]-1H-pyrazol-1-yl)-2-methylpropan-2-ol], the inhibition constant Ki stood at 0.73 nM.

On to `Cc1cc(Nc2cc3cc(-c4cnccc4C)nc(N)c3cn2)n(CCO)n1` [Compound 261, 2-(5-[[8-amino-6-(4-methylpyridin-3-yl)-2,7-naphthyridin-3-yl]amino]-3-methyl-1H-pyrazol-1-yl)ethan-1-ol], for which the inhibitory constant (Ki) came to 36.7 nM.

Take `CNC(=O)c1cc(Nc2cc3cc(-c4cnccc4C)nc(N)c3cn2)nn1C` [Compound 263, 3-[[8-Amino-6-(4-methylpyridin-3-yl)-2,7-naphthyridin-3-yl]amino]-N,1-dimethyl-1H-pyrazole-5-carboxamide]: the inhibition constant Ki amounted to 0.021 nM.

In the case of `Cc1ccncc1-c1cc2cc(Nc3ccc(CS(N)(=O)=O)cc3)ncc2c(N)n1` [Compound 264, (4-[[8-Amino-6-(4-methylpyridin-3-yl)-2,7-naphthyridin-3-yl]amino]phenyl)methanesulfonamide], the Ki was determined as 0.134 nM.

Turning to `Cc1ccncc1-c1cc2cc(Nc3ccc(N4CCNCC4=O)cc3)ncc2c(N)n1` [Compound 265, 1-(4-[[8-amino-6-(4-methylpyridin-3-yl)-2,7-naphthyridin-3-yl]amino]phenyl)piperazin-2-one], the Ki came to 0.249 nM.

As for `Cc1ccncc1-c1cc2cc(Nc3cnn(C(C)(C)CO)c3)ncc2c(N)n1` [Compound 266, 2-(4-[[8-amino-6-(4-methylpyridin-3-yl)-2,7-naphthyridin-3-yl]amino]-1H-pyrazol-1-yl)-2-methylpropan-1-ol], the Ki was 0.118 nM.

In the case of `Cc1ccncc1-c1nc(N)c2cnc(NC(=O)[C@@H]3C[C@H]3CC#N)cc2c1Cl` [Compound 269, (1R,2S)—N-[8-amino-5-chloro-6-(4-methylpyridin-3-yl)-2,7-naphthyridin-3-yl]-2-(cyanomethyl)cyclopropane-1-carboxamide], the Ki worked out at 2.3 nM.
